Test results: patent EP4603105A1, “PHARMACEUTICAL COMPOSITION CONTAINING CYCLIC COMPOUND HAVING SELECTIVE KRAS INHIBITORY EFFECT AGAINST HRAS AND NRAS” (CHUGAI SEIYAKU KABUSHIKI KAISHA, priority 2022, dated 2024)
pIC50, pKd: −log10 of the molar value. Where two headings read alike, the source gives them in different places.

How the values were obtained:
[1] = test system: human lung cancer strain NCI-H441; assay: NCI-H441 cell proliferation inhibitory activity (CellTiter-Glo, 4 days); type: cell-based; details: read-out: NCl-H441 IC50
In short: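 Readout: […] after the ATP-based reagent. Compound: serial dilutions in dimethyl sulfoxide.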

[2] = target: HRAS wild-type protein (Homo sapiens, UniProt P01112); assay: Binding to HRAS by surface plasmon resonance (SPR), KD and KD ratio to KRAS
In short: (§1)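 Affinity is measured by surface plasmon resonance at 30°C against captured, GDP-loaded RAS carrying a biotinylated Avi tag. Compounds are titrated by single-cycle kinetics, and KD comes from a 1:1 fit.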

[3] = target: GDP-bound NRAS wild-type protein (Homo sapiens, UniProt P01111); assay: Binding to NRAS by surface plasmon resonance (SPR), KD and KD ratio to KRAS
In short: as §1

[4] = target: GDP-bound KRAS wild-type protein (Homo sapiens, UniProt P01116); assay: Binding to KRAS by surface plasmon resonance (SPR), dissociation constant KD
In short: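 Biotinylated GDP-bound RAS was captured at about 100–300 RU. Running buffer: HBS pH 7.4, 10 mM MgCl2, 10 µM GDP, 1 mM DTT, 0.01% Tween 20, 4% DMSO.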

[5] = ratio of KD for HRAS wild-type protein to KD for KRAS
[6] = ratio of KD for GDP-bound NRAS wild-type protein to KD for KRAS
[7] = 50% proliferation inhibitory concentration, four days
[8] = ratio of KD with respect to HRAS wild-type protein to KD with respect to KRAS
[9] = ratio of KD with respect to GDP-bound NRAS wild-type protein to KD with respect to KRAS
[10] = Single Cycle Kinetics, 1:1 binding model

HRAS wild-type protein, sequence (P01112 whole entry): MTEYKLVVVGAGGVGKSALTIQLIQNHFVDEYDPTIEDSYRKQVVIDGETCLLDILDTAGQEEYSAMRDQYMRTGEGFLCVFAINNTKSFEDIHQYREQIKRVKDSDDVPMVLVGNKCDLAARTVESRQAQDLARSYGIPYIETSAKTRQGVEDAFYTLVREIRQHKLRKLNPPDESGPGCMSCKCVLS
GDP-bound KRAS wild-type protein, sequence (P01116 1-188 isoform P01116-2): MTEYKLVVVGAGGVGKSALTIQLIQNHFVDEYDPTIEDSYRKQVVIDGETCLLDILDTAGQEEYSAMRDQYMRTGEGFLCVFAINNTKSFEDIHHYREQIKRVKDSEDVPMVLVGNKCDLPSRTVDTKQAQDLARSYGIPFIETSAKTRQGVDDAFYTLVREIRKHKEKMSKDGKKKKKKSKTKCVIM
GDP-bound NRAS wild-type protein, sequence (P01111 whole entry): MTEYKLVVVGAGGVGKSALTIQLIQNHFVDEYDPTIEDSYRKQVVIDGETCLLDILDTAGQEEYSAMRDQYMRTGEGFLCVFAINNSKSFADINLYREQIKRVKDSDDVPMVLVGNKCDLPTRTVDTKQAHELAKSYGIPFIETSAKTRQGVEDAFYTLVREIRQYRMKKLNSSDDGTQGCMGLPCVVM

Row | pIC50 ([1]; NCI-H441 cells, 4 days) | pKd ([4]; Single Cycle Kinetics) | pKd ([4]; 1:1 binding model) | pIC50 [1, 7] | pKd [4, 10] | Structure (SMILES) | HRAS /KRAS [2, 5] | NRAS /KRAS [3, 6] | HRAS /KRAS [2, 8] | NRAS /KRAS [3, 9]
1 | 6.99 | 8.96 |  |  |  | CCCOC[C@H]1C(=O)N[C@@H](C2CCCC2)C(=O)N(CCC)CC(=O)N(C)[C@H]2C/C=C\CCN(C2=O)[C@@H](Cc2ccc(C)cc2)C(=O)N(C)CC(=O)N[C@@H](CCc2ccc(Cl)c(C(F)(F)F)c2)C(=O)N2C[C@H](OC(C)C)C[C@H]2C(=O)N(C)C2(CCC2)C(=O)N(C)[C@@H](C(CC)CC)C(=O)N(C)[C@H](C(=O)N(C)C)CC(=O)N1C [PP3501] | A (a compound having 10 or more and less than 20 is denoted as A) | AA (a compound having 20 or more is denoted as AA) |  | 
2 | 7.80 | 8.77 |  |  |  | C=C(C)C[C@H]1C(=O)N(C)[C@H](C(=O)N(C)C)CC(=O)N(C)[C@@H](CC(C)C)C(=O)N[C@@H]([C@@H](C)CC)C(=O)N(C)CC(=O)N(C)[C@H]2C/C=C\CCN(C2=O)[C@@H](Cc2ccc(C)cc2)C(=O)N(C)CC(=O)N[C@@H](CCc2cc(F)c(C(F)(F)F)c(F)c2)C(=O)N2C[C@H](OCC)C[C@H]2C(=O)N(C)C2(CCC2)C(=O)N1C [PP3349] | A (a compound having 10 or more and less than 20 is denoted as A) | A (a compound having 10 or more and less than 20 is denoted as A) |  | 
3 | 7.60 | 8.85 |  |  |  | C=CC[C@H]1C(=O)N(C)[C@H](C(=O)N(C)C)CC(=O)N(C)[C@@H](CC(C)C)C(=O)N[C@@H]([C@@H](C)CC)C(=O)N(C)CC(=O)N(C)[C@H]2C/C=C\CCN(C2=O)[C@@H](Cc2ccc(C)cc2)C(=O)N(C)CC(=O)N[C@@H](CCc2cc(F)c(C(F)(F)F)c(F)c2)C(=O)N2C[C@H](OCC)C[C@H]2C(=O)N(C)C2(CCC2)C(=O)N1C [PP3348] | A (a compound having 10 or more and less than 20 is denoted as A) | A (a compound having 10 or more and less than 20 is denoted as A) |  | 
4 | 8.34 |  | 9.92 |  |  | CCC[C@H]1C(=O)N[C@@H]([C@@H](C)CC)C(=O)N(C)CC(=O)N(C)[C@H]2C/C=C\CCN(C2=O)[C@@H](Cc2ccc(C(F)(F)F)cc2)C(=O)N(C)CC(=O)N[C@@H](CCc2ccc(C(F)(F)F)c(OC)c2)C(=O)N2C[C@H](OCC)C[C@H]2C(=O)N(C)C2(CCC2)C(=O)N(C)[C@@H](C(CC)CC)C(=O)N(C)[C@H](C(=O)N(C)C)CC(=O)N1C [PP2382] | A (a compound having 10 or more and less than 20 is denoted as A) | A (a compound having 10 or more and less than 20 is denoted as A) |  | 
5 | 7.53 | 9.07 |  |  |  | C=C(C)C[C@H]1C(=O)N(C)[C@H](C(=O)N(C)C)CC(=O)N(C)[C@@H](CCC)C(=O)N[C@@H]([C@@H](C)CC)C(=O)N(C)CC(=O)N(C)[C@H]2C/C=C\CCN(C2=O)[C@@H](Cc2ccc(C(F)(F)F)cc2)C(=O)N(C)CC(=O)N[C@@H](CCc2ccc(C(F)(F)F)c(OC)c2)C(=O)N2C[C@H](OCC)C[C@H]2C(=O)N(C)C2(CCC2)C(=O)N1C [PP3332] | B (a compound having 3 or more and less than 10 is denoted as B) | A (a compound having 10 or more and less than 20 is denoted as A) |  | 
6 | 7.89 | 9.60 |  |  |  | CCC[C@H]1C(=O)N[C@@H]([C@@H](C)CC)C(=O)N(C)CC(=O)N(C)[C@H]2C/C=C\CCN(C2=O)[C@@H](Cc2ccc(C(F)(F)F)cc2)C(=O)N(C)CC(=O)N[C@@H](CCc2ccc(C(F)(F)F)c(Cl)c2)C(=O)N2CC3(CC3)C[C@H]2C(=O)NC2(CCC2)C(=O)N(C)[C@@H]([C@@H](C)CC)C(=O)N(C)[C@H](C(=O)N(C)C)CC(=O)N1C [PP3416] | A (a compound having 10 or more and less than 20 is denoted as A) | AA (a compound having 20 or more is denoted as AA) |  | 
7 | 7.16 |  | 9.07 |  |  | CCC(CC)[C@H]1C(=O)N(C)[C@H](C(=O)N(C)C)CC(=O)N(C)[C@@H](COC)C(=O)N[C@@H]([C@@H](C)CC)C(=O)N(C)CC(=O)N(C)[C@H]2C/C=C\CCN(C2=O)[C@@H](Cc2ccc(C(F)(F)F)cc2)C(=O)N(C)CC(=O)N[C@@H](CCc2ccc(Cl)c(Cl)c2)C(=O)N2C[C@H](OC3CCCC3)C[C@H]2C(=O)NC2(CC(C)(C)C2)C(=O)N1C [PP2648] | A (a compound having 10 or more and less than 20 is denoted as A) | A (a compound having 10 or more and less than 20 is denoted as A) |  | 

The remaining lines, values behind:

Row | Structure (SMILES) | pIC50 ([1]; NCI-H441 cells, 4 days) | pKd ([4]; Single Cycle Kinetics) | pKd ([4]; 1:1 binding model) | pIC50 [1, 7] | pKd [4, 10] | HRAS /KRAS [2, 5] | NRAS /KRAS [3, 6] | HRAS /KRAS [2, 8] | NRAS /KRAS [3, 9]
8 | CCO[C@H](C)[C@@H]1NC(=O)[C@H](CC(C)C)N(C)C(=O)C[C@@H](C(=O)N(C)C)N(C)C(=O)[C@H](C2CCCC2)N(C)C(=O)C2(CC(C)(C)C2)NC(=O)[C@@H]2C[C@H](C)CN2C(=O)[C@H](CCc2ccc(C(F)(F)F)c(OC)c2)NC(=O)CN(C)C(=O)[C@H](Cc2ccc(C)cc2)N2CC/C=C\C[C@@H](C2=O)N(C)C(=O)CN(C)C1=O [PP2412] | 7.68 |  | 9.82 |  |  | B (a compound having 3 or more and less than 10 is denoted as B) | A (a compound having 10 or more and less than 20 is denoted as A) |  | 
9 | CCO[C@@H]1C[C@H]2C(=O)NC3(CCC3)C(=O)N(C)[C@@H](C3CCCC3)C(=O)N(C)[C@H](C(=O)N(C)C)CC(=O)N(C)[C@@H](Cc3ccc(C#N)cc3)C(=O)N[C@@H]([C@@H](C)CC)C(=O)N(C)CC(=O)N(C)[C@H]3CCCCCN(C3=O)[C@@H](Cc3ccc(C(F)(F)F)cc3)C(=O)N(C)CC(=O)N[C@@H](CCc3cc(F)c(C(F)(F)F)c(F)c3)C(=O)N2C1 [PP1173] |  |  |  | 7.15 | 9.74 |  |  | B (a compound having 3 or more and less than 10 is denoted as B) | B (a compound having 3 or more and less than 10 is denoted as B)
10 | CCC[C@H]1C(=O)N[C@@H]([C@@H](C)CC)C(=O)N2CCC[C@H]2C(=O)N(C)[C@H]2C/C=C\CCN(C2=O)[C@@H](Cc2ccc(C)cc2)C(=O)N(C)CC(=O)N[C@@H](CCc2ccc(Cl)c(Cl)c2)C(=O)N2C[C@H](OCC)C[C@H]2C(=O)NC2(CC(C)(C)C2)C(=O)N(C)[C@@H](C(CC)CC)C(=O)N(C)[C@H](C(=O)N(C)C)CC(=O)N1C [PP2638] | 7.01 |  | 8.60 |  |  | A (a compound having 10 or more and less than 20 is denoted as A) | AA (a compound having 20 or more is denoted as AA) |  | 
11 | CCO[C@@H]1C[C@H]2C(=O)NC3(CCC3)C(=O)N(C)[C@@H](C(CC)CC)C(=O)N(C)[C@H](C(=O)N(C)C)CC(=O)N(C)[C@@H](CC3CCCC3)C(=O)N[C@@H]([C@@H](C)CC)C(=O)N(C)CC(=O)N(C)[C@H]3C/C=C\CCN(C3=O)[C@@H](CC3CCC(F)(F)CC3)C(=O)N(C)CC(=O)N[C@@H](CCc3cc(F)c(C(F)(F)F)c(F)c3)C(=O)N2C1 [PP1431] |  |  |  | 7.39 | 9.24 |  |  | A (a compound having 10 or more and less than 20 is denoted as A) | AA (a compound having 20 or more is denoted as AA)
12 | CCOC[C@H]1C(=O)N[C@@H]([C@@H](C)CC)C(=O)N(C)CC(=O)N(C)[C@H]2C/C=C\CCN(C2=O)[C@@H](Cc2ccc(C)cc2)C(=O)N(C)CC(=O)N[C@@H](CCc2ccc(C(F)(F)F)c(Cl)c2)C(=O)N2C[C@@H](C)C[C@H]2C(=O)NC2(CC(C)(C)C2)C(=O)N(C)[C@@H](C2CCCC2)C(=O)N(C)[C@H](C(=O)N(CC)CC)CC(=O)N1C [PP2465] | 7.40 |  | 9.29 |  |  | A (a compound having 10 or more and less than 20 is denoted as A) | AA (a compound having 20 or more is denoted as AA) |  | 
13 | CCCOC[C@H]1C(=O)N[C@@H]([C@@H](C)CC)C(=O)N(C)CC(=O)N(C)[C@H]2C/C=C\CCN(C2=O)[C@@H](Cc2ccc(C)cc2)C(=O)N(C)CC(=O)N[C@@H](CCc2ccc(C(F)(F)F)c(Cl)c2)C(=O)N2C[C@@H](C)C[C@H]2C(=O)NC2(CC(C)(C)C2)C(=O)N(C)[C@@H](C2CCCC2)C(=O)N(C)[C@H](C(=O)N(C)C)CC(=O)N1C [PP2453] | 8.04 |  | 10.05 |  |  | A (a compound having 10 or more and less than 20 is denoted as A) | A (a compound having 10 or more and less than 20 is denoted as A) |  | 
14 | CC[C@H](C)[C@@H]1NC(=O)[C@H](CC(C)C)N(C)C(=O)C[C@@H](C(=O)N(C)C)N(C)C(=O)[C@H](C2CCCC2)N(C)C(=O)C2(CCC2)NC(=O)[C@@H]2CCCN2C(=O)[C@H](CCc2cc(F)c(C(F)(F)F)c(F)c2)NC(=O)CN(C)C(=O)[C@H](Cc2ccc(C(F)(F)F)cc2)N2CC/C=C\C[C@@H](C2=O)N(C)C(=O)CN(C)C1=O [PP1272] |  |  |  | 7.62 | 9.96 |  |  | A (a compound having 10 or more and less than 20 is denoted as A) | A (a compound having 10 or more and less than 20 is denoted as A)
15 | C#CCN1CC(=O)N(C)[C@H]2C/C=C\CCN(C2=O)[C@@H](Cc2ccc(C)cc2)C(=O)N(C)CC(=O)N[C@@H](CCc2ccc(C(F)(F)F)c(Cl)c2)C(=O)N2C[C@H](OCC)C[C@H]2C(=O)NC2(CC(C)(C)C2)C(=O)N(C)[C@@H](C2CCCC2)C(=O)N(C)[C@H](C(=O)N(C)C)CC(=O)N(C)[C@@H](CCC)C(=O)N[C@@H](CC(C)C)C1=O [PP2526] | 7.26 |  | 8.40 |  |  | B (a compound having 3 or more and less than 10 is denoted as B) | A (a compound having 10 or more and less than 20 is denoted as A) |  | 
